The source of these data is patent publication US20090281106A1, “PROPHYLACTIC AND/OR THERAPEUTIC METHOD FOR RHEUMATOID ARTHRITIS” (Kowa Co., Ltd, priority 2005, published 2009).

This experiment has as its system rat collagen-induced arthritis model. Nature of the experiment: rat collagen-induced arthritis model, edema suppression in both hindlimbs. The class given is in vivo, female Lewis rat (LEW/Crj). As to conditions: oral, Drug A 3 mg/kg twice a day, Drug B 1.5 mg/kg once a day; for Relative index: edema volume of group / control group; for Edema volume for both hindlimbs: average ± standard error of 5 to 6 rats; for Decreasing rate: vs control group; for edema suppressive effect (in words): sole administration. The protocol:
For the cases of combined administration of 2-benzyl-5-(4-chlorophenyl)-6-[4-(methylthio)phenyl]-2H-pyridazin-3-one (the product synthesized by the above-described method is used) (Drug A) and leflunomide (Drug B), and respective single drug administrations, the effect of edema suppression in both hindlimbs was determined by the following method (rat collagen-induced arthritis model) (FDA, CBER, CDER, CDRH: Guidance for industry—Clinical development programs for drugs, devices, and biological products for the treatment of rheumatoid arthritis (RA)—. (1999)). In addition, the test animal used was female Lewis rat (LEW/Crj) (obtained from Charles River Laboratories Japan, Inc.).
For each 8-week-old LEW/Crj rat, the volume of a portion extending from the ankle to the paw was measured for both hindlimbs (hereinafter, hindlimbs volume) by means of a plethysmometer for small animals (TK-101CMP, product of Unicom), and the total volume was taken as the hindlimbs volume upon initiation of test (hereinafter, Pre value). This Pre value was used as an index to divide the rats into groups by one-parameter-based block randomization, so that the values in the respective groups averaged out.
The collagen emulsion for sensitization that was used to induce arthritis in rats, was prepared by homogenizing a 0.3% Type II collagen solution (Collagen Research Center), Adjuvant Peptide (Peptide Institute, Inc.) and Adjuvant Incomplete Freund (DIFCO), using a Handy Micro Homogenizer (Microtec Nition, Co., Ltd.) under ice-cooling. The collagen emulsion thus prepared was intracutaneously administered at 10 sites in the back of each rat at a dose of 0.1 mL/site, to perform initial sensitization of the rat. Seven days after the initial sensitization, 0.12 mL of the same collagen emulsion was intracutaneously administered to the tail head of each rat, to perform booster sensitization.
Drug administration was conducted from the day after the initial sensitization through 29 days thereafter. The group for sole administration of Drug A was orally administered with the drug at 3 mg/kg, twice a day, in the morning (9:00 to 11:00) and in the evening (15:30 to 17:30). The group for sole administration of Drug B was orally administered with the drug at 1.5 mg/kg, once a day, in the afternoon (11:30 to 13:30). On the other hand, the group for combined administration of Drug A and Drug B was orally administered with Drug A at 3 mg/kg in the morning (9:00 to 11:00) and in the evening (15:30 to 17:30), and with Drug B at 1.5 mg/kg in the afternoon (11:30 to 13:30).
14, 18, 21, 26 and 31 days after the initial sensitization, the hindlimbs volume was measured again for each rat, and the difference between each of the values and the Pre value was determined to calculate the edema volume for both hindlimbs.
Tables 1 to 4 and FIGS. 1 to 4 represent the edema volume for both hindlimbs after 18, 21, 26 and 31 days from the initial sensitization, respectively, of the group for sole administration of Drug A, the group for sole administration of Drug B and the group for combined administration. The edema volume for both hindlimbs (mL) is expressed in the average value±standard error of 5 to 6 rats in each group. Furthermore, the decreasing rate is indicated as (average value of edema volume for both hindlimbs for the control group−the average value of edema volume for hindlimbs for each group)/(average value of edema volume for both hindlimbs for the control group)×100, while the relative index is indicated as (average value of edema volume for both hindlimbs for each group)/(average value of edema volume for both hindlimbs for the control group).

The mark [1] stands for this setting: 18 days after initial sensitization.
Where [2] appears, read: 21 days after initial sensitization.
[3] abbreviates: 26 days after initial sensitization.
Where [4] appears, read: 31 days after initial sensitization.

As for `CSc1ccc(-c2nn(Cc3ccccc3)c(=O)cc2-c2ccc(Cl)cc2)cc1` [Drug A, 2-benzyl-5-(4-chlorophenyl)-6-[4-(methylthio)phenyl]-2H-pyridazin-3-one], the “edema suppressive effect (in words)” value is listed as “did not show a potent edema suppressive effect”. Further, under setting [1], the Relative index was found to be 0.89, the “Edema volume for both hindlimbs” value was 1.79 ± 0.17 mL and the Decreasing rate is reported as 11%. Also, under setting [2], the Relative index was 0.90, the “Edema volume for both hindlimbs” value was 1.54 ± 0.17 mL and the Decreasing rate was 10%. Under setting [3], the Relative index stood at 0.99, the “Edema volume for both hindlimbs” value came out at 1.58 ± 0.27 mL and the Decreasing rate was determined as 1%. Further, under setting [4], the Relative index is 1.02, the “Edema volume for both hindlimbs” value amounted to 1.44 ± 0.26 mL and the Decreasing rate is recorded as −2%.
Consider `Cc1oncc1C(=O)Nc1ccc(C(F)(F)F)cc1` [Drug B, N-(4-trifluoromethylphenyl)-5-methylisoxazole-4-carboxamide], for which the “edema suppressive effect (in words)” value was “decrease in the edema suppressive effect in the stage after 18 days from the initial sensitization”. Also, under setting [1], the Relative index stood at 0.28, the “Edema volume for both hindlimbs” value turned out to be 0.57 ± 0.32 mL and the Decreasing rate is 72%. In addition, under setting [2], the Relative index was 0.34, the “Edema volume for both hindlimbs” value was 0.58 ± 0.31 mL and the Decreasing rate is 66%. Moreover, under setting [3], the Relative index worked out at 0.49, the “Edema volume for both hindlimbs” value worked out at 0.78 ± 0.28 mL and the Decreasing rate came to 51%. Under setting [4], the Relative index came out at 0.57, the “Edema volume for both hindlimbs” value was 0.81 ± 0.26 mL and the Decreasing rate is listed as 43%.
